Tested on: NIH/3T3 cells
Assay: Drug toxicity to 3T3 cells (Alamar Blue, 96 h)
Assay type: cell-based

For `CN1CCN(c2ncc(-c3ccc4c(Nc5cnccn5)ccnc4c3)cn2)CC1` [Compound 22], the “3T3 TC50” value was 34 µM.

— publication PMC6283615, “Anilinoquinoline based inhibitors of trypanosomatid proliferation” (PLoS Neglected Tropical Diseases, 2018)
